Legend:
[1] = Hygroscopicity, dynamic vapor sorption (DVS), 0-95% RH; assay type: physicochemical; settings: for change of crystal form / hygroscopicity (in words): range of 0-95% relative humidity
Method: Dynamic vapor sorption (DVS) method, instrument model: SMS DVS Intrinsic, 0˜95% RH, temperature: 25° C.; FTIR method, instrument model: Nicolet 6700, sectral range: 4000˜400 cm^−1, resolution ratio: 4 cm^−1, scanning times: 32, the infrared spectra of the samples were determined by KBr pressed-disk technique method, temperature: 25° C.;
In this invention, it is named as leonurine crystal form A, which is monohydrate crystal form, square block crystal (as shown in FIG. 13), no crystal transformation before melting, dehydrates at 120˜150° C. and transform into anhydrous crystal form B, and decomposes at about 250° C. […] Under the condition of, in the suspension experiment at 25° C., in methanol, ethanol, isopropanol, acetone, acetonitrile, tetrahydrofuran, nitromethane, ethyl acetate, isopropyl acetate, isoamyl alcohol, methyl tert-butyl ether, toluene, methyl isobutyl ketone, n-hexane, n-heptane, ether, dichloromethane, chloroform, petroleum ether, water and other solvents; and under the condition of, in the suspension experiment at 50° C., in methanol, ethanol, acetone, methyl ethyl ketone, isopropyl acetate, methyl tert-butyl ether, toluene, n-hexane, n-heptane, diethyl ether, chloroform, petroleum ether, water and other solvents; and under most solvent conditions in suspension and volatilization of mixed solvents at 25° C. and 50° C., form A can be obtained. […] In a range of 0˜95% RH, the dehydration and water absorption behavior of the crystal form is very weak.

[2] = Accelerated stability test of leonurine crystal forms; assay type: physicochemical; settings: 40° C.; for Crystal stability: 70% RH, 10 days
Description: In the invention, the dominant medicinal crystal form was also screened by the accelerated stability experimental method, and observed the transformation among the various crystal forms.

ApoE knockout mice = assay: Serum lipids in hyperlipidemia ApoE knockout mice on high fat diet; assay type: in vivo; settings: positive control 3 mg/kg/day intragastric, 4 weeks, vs model group
Method: Fifteen C57BL/6J mice (male, 6-8 weeks) and seventy-five ApoE knockout mice (male, 6-8 weeks) were used for experiments. C57BL/6J mice were fed with normal diet, and ApoE knockout mice were fed for 1 week with a diet of normal/high fat diet ratio of 1/1.
Mice were weighed before administered drugs every week, where the dosage of the drug for mice is calculate according to the weight; and housed under 24±1° C. room temperature and 55±5% air humidity condition, and allowed enough food and water ad libitum. After the drug administration continuously for 4 weeks, the mice were anesthetized with pentobarbital sodium according to body weight. Blood (0.5 ml per mouse) was drawn from the inner canthus vein for hematology analysis. Hematology analysis: blood samples were let for standing for 2 h and centrifuged (3000 rpm, 10 min, 4° C.) to obtain serum. The total cholesterol (TC), triacylglycerol (TG) and low-density cholesterol (LDL-C) levels in the serum samples were assessed using automatic biochemical analyzer. Statistical analysis: GraphPad Prism 5 software was used to analyze and draw figure. Results were expressed as the mean±standard (mean±SD), and statistical analysis was performed by one-way analysis of variance (ANOVA) or student's t test. A difference with P<0.05 was considered statistically significant. Statistical significance was set at *P<0.05, **P<0.01, ***P<0.001 versus the model group.

New Zealand white rabbit = assay: Serum lipids in hyperlipidemia New Zealand rabbits on high fat diet; assay type: in vivo; settings: positive control 2.5 mg/kg/day intragastric, 12 weeks, vs model group
Method: Forty-eight male New Zealand rabbits weighed 1.8 to 2.2 kg were housed under 12 h dark-12 h light cycles and allowed food and water ad libitum to adapt to the housing environment for one week, and then randomly divided into 6 groups: • 1) Control group (Normal diet, n=8); Administered intragastrically with ultrapure water; • 2) Model group (High fat diet, n=8); Administered intragastrically with ultrapure water; • 3) Leonurine crystal form A in low dose group (High fat diet, n=8); Administered intragastrically at a dose of 4 mg/kg/day; • 4) Leonurine crystal form A in middle dose group (High fat diet, n=8); Administered intragastrically at a dose of 8 mg/kg/day; • 5) Leonurine crystal form A in high dose group (High fat diet, n=8); […] Administered intragastrically at a dose of 2.5 mg/kg/day; Rabbits were weighed before administered drugs every week, where the dosage of the drug for rabbits is calculate according to the weight; and housed in an air-conditioned room under (24±1° C. room temperature and 55±5% air humidity) and allowed enough food and water ad libitum. After 12 weeks of administration, the rabbits were fasted for 12 h, and blood (2 ml) was drawn from the marginal ear vein for hematology analysis. Hematology analysis: blood samples were let for standing for 2 h and centrifuged (3000 rpm, 10 min, 4° C.) to obtain serum. The serum samples were tested according to the protocols recommended by Nanjing Jiancheng Bioengineering Institute. The total cholesterol (TC), triacylglycerol (TG), low-density cholesterol (LDL-C) and […] (HDL-C) levels in the serum samples were assessed using automatic microplate reader and automatic biochemical analyzer. Statistical analysis: GraphPad Prism 5 software was used to analyze and draw figure. Results were expressed as the mean±standard (mean±SD), and statistical analysis was performed by one-way analysis of variance (ANOVA) or student's t test. A difference with P<0.05 was considered statistically significant. Statistical significance was set at *P<0.05, **P<0.01, ***P<0.001 versus the model group.

[3] = relative humidity 60%-80%, 10-day stability test

Row | Compound | hygroscopicity, water absorption ([1]; 60% RH) | hygroscopicity, water absorption ([1]; 80% RH) | change of crystal form [1] | hygroscopicity (in words) [1] | Crystal stability ([2]; listed as F) | Crystal stability ([2]; listed as form F) | crystal transformation behavior [2, 3] | Crystal stability [2] | Crystal stability ([2]; listed as C) | Crystal stability ([2]; listed as B) | Crystal stability ([2]; listed as D) | Crystal stability ([2]; listed as E) | hygroscopicity (in words) [2, 3] | hygroscopicity relative to crystal form A [2, 3] | serum total cholesterol (TC) (ApoE knockout mice) | serum triacylglycerol (TG) (ApoE knockout mice) | serum total cholesterol (TC) (New Zealand white rabbit) | serum triacylglycerol (TG) (New Zealand white rabbit)
1 | COc1cc(C(=O)OCCCCNC(=N)N)cc(OC)c1O [crystal form F, 4-guanidino-1-butyl 4-hydroxy-3,5-dimethoxybenzoate] | 60% RH, water absorption 0.14% | 80% RH, water absorption 0.30% | changes into crystal form A | slightly hygroscopicity | form into A | transformed into crystal form A | appeared crystal transformation | – | – | – | – | – | – | – | – | – | – | –
2 | COc1cc(C(=O)OCCCCNC(=N)N)cc(OC)c1O [crystal form C, 4-guanidino-1-butyl 4-hydroxy-3,5-dimethoxybenzoate] | 60% RH, water absorption 0.56% | 80% RH, water absorption 1.05% | changed into crystal form A | – | – | – | appeared crystal transformation | transformed into crystal form A | form into A | – | – | – | – | – | – | – | – | –
3 | COc1cc(C(=O)OCCCCNC(=N)N)cc(OC)c1O [crystal form B, 4-guanidino-1-butyl 4-hydroxy-3,5-dimethoxybenzoate] | 60% RH, water absorption 0.14% | 80% RH, water absorption 0.30% | changed into crystal form A | slightly hygroscopicity | – | – | appeared crystal transformation | transformed into crystal form A | – | form into A | – | – | – | – | – | – | – | –
4 | CC(C)c1c(C(=O)Nc2ccccc2)c(-c2ccccc2)c(-c2ccc(F)cc2)n1CC[C@@H](O)C[C@@H](O)CC(=O)O [Atorvastatin, reference compound] | – | – | – | – | – | – | – | – | – | – | – | – | – | – | reduced | reduced | no significant difference | reduced

More lines, main results first:

Row | hygroscopicity, water absorption ([1]; 60% RH) | hygroscopicity, water absorption ([1]; 80% RH) | change of crystal form [1] | hygroscopicity (in words) [1] | Crystal stability ([2]; listed as F) | Crystal stability ([2]; listed as form F) | crystal transformation behavior [2, 3] | Crystal stability [2] | Crystal stability ([2]; listed as C) | Crystal stability ([2]; listed as B) | Crystal stability ([2]; listed as D) | Crystal stability ([2]; listed as E) | hygroscopicity (in words) [2, 3] | hygroscopicity relative to crystal form A [2, 3] | Compound | serum total cholesterol (TC) (ApoE knockout mice) | serum triacylglycerol (TG) (ApoE knockout mice) | serum total cholesterol (TC) (New Zealand white rabbit) | serum triacylglycerol (TG) (New Zealand white rabbit)
5 | 60% RH, water absorption 1.63% | 80% RH, water absorption 0.98% | changed into crystal form A | – | – | – | appeared crystal transformation | transformed into crystal form A | – | – | form into A | – | – | – | COc1cc(C(=O)OCCCCNC(=N)N)cc(OC)c1O [crystal form D, 4-guanidino-1-butyl 4-hydroxy-3,5-dimethoxybenzoate] | – | – | – | –
6 | 60% RH, water absorption 0.07% | 80% RH, water absorption 0.12% | didn't change | slight hygroscopicity | – | – | did not appear crystal transformation | remain unchanged | – | – | – | stable | strong | about ten times | COc1cc(C(=O)OCCCCNC(=N)N)cc(OC)c1O [crystal form E, 4-guanidino-1-butyl 4-hydroxy-3,5-dimethoxybenzoate] | – | – | – | –

Reference: patent US11446270B2, “Leonurine crystal and use thereof in preparation of insulin sensitizer, hypoglycemic drug and lipid-lowering drug” (ZHUHAI HENGQIN NEW DISTRICT ZHONGZHU ZHENGTAI MEDICAL …, priority 2017, dated 2022)
